Square brackets hold non-standard residues; d marks the D form. Peptide text beside a SMILES is read from it. pGlu = O=C1CC[C@@H](C(=O)O)N1
Experiments:
myelopoietic system = assay: injection of peptide into mice, effect on hemopoiesis; assay type: in vivo
granulopoiesis = assay: activity as granulopoiesis inhibition factor
From the text: Due to the minute amounts of the natural granulopoiesis factor available, the structure of the natural substance has not been determined. It has never been obtained in crystalline or completely pure form and it is not known whether this could be achieved using material from natural sources only. In contrast, the peptides of the invention can be obtained in crystalline form suitable for pharmaceutical use and in relatively large quantities, free from contaminating peptides and proteins of natural origin.

[1] = injected into mice at a relatively low dose level
[2] = mice, injections at 10^-5 M for six successive days

SMILES | production of myelopoietic cells after treatment (myelopoietic system; after treatment with the peptide, inhibitory effect reversible, normal cell population overshoots temporarily) | effect on other cell lineages deriving from the pluripotent stem cells (myelopoietic system; [1]) | effect on the myelopoietic system (morphologically recognisable cells and committed stem cells) (myelopoietic system; [1]) | effect on the whole hemopoietic system, including production of lymphocytes (myelopoietic system; mice, 10^-5 M for three weeks) | peripheral granulocytes (myelopoietic system; mice, concentration of 10^-7 M in the extracellular fluid, greatest in the mature cells) | pluripotent stem cells and production of erythrocytes (myelopoietic system; [2]) | population of committed stem cells (myelopoietic system; [2]) | granulopoiesis inhibition activity (granulopoiesis)
NCCCC[C@H](NC(=O)[C@H](CS)NC(=O)[C@H](CC(=O)O)NC(=O)[C@H](CCC(=O)O)NC(=O)[C@@H]1CCC(=O)N1)C(=O)O [Compound (1), L-pyroGlutamyl-L-glutamyl-L-aspartyl-L-cysteinyl-L-lysine] ([pGlu]EDCK-OH) | temporarily abnormally increased | not affected | selective inhibition of the myelopoietic system | strong stimulation | marked decrease | reduced | strong reduction | 
NCCCC[C@H](NC(=O)[C@H](CS)NC(=O)[C@H](CC(=O)O)NC(=O)[C@H](CC(=O)O)NC(=O)[C@@H]1CCC(=O)N1)C(=O)O [pyroGlu-Asp-Asp-Cys-LysOH] ([pGlu]DDCK-OH) |  |  |  |  |  |  |  | inactive

From patent publication US4499081A, “Peptide compounds” (Nyegaard & Co A/S, priority 1982, dated 1985)
